# According to US11971412B2, “Polypeptide-antibody complexes and uses thereof” (Mayo Foundation for Medical Education and Research, priority 2017, dated 2024):
# Ends that are not written are not given here.
# Experiments:
# [1] = test system: CD20+ Daudi lymphoma cells; assay: Flow cytometry staining of CD20+ Daudi lymphoma cells; type: cell-based; conditions: CD20+ Daudi lymphoma cells incubated 30 minutes at 4° C., washed with FACS buffer
# Experimental: FIG. 1 is a series of scatter plots from flow cytometry studies using a polypeptide having the sequence […] (SEQ ID NO:3) that was labeled with QDs that emit at a wavelength of 565 nm, and complexed with a therapeutic antibody (rituximab). […] CD20+ Daudi lymphoma cells were incubated with isotype control, FITC-rituximab, peptide-QD only, peptide-QD+rituximab (10:1), and peptide-QD+rituximab (25:1) for 30 minutes at 4° C. After washing with FAGS buffer (PBS+0.5% BSA and 0.5% Na azide), the stained cells were analyzed by flow cytometry for recognition of CD20. The Daudi cells were 95% CD20+ (top left), 11.62% positive when stained with peptide-QD only (bottom left), and 57.02% and 61.31% positive with peptide-QD-rituximab at 10:1 and 25:1 (bottom center and bottom right, respectively).
# The fluorescently labeled peptide was then bound to rituximab, trastuzumab, or atezolizumab and tested for binding to tumor cells expressing the pertinent tumor target. […] CD20+ Daudi lymphoma cells were incubated with isotype control, FITC-rituximab, polypeptide-QD only, polypeptide-QD-rituximab (10:1) complex, and polypeptide-QD-rituximab (25:1) complex for 30 minutes at 4° C. After washing with FACS buffer (PBS+0.5% BSA and 0.5% Na azide), the stained cells were analyzed by flow cytometry. […]
# [2] = test system: SK-Br-3 (HER2/neu-positive) cells; assay: Flow cytometry staining of HER2/neu-positive SK-Br-3 cells; type: cell-based
# Experimental: FIG. 4 is a series of scatter plots from flow cytometry studies using SK-Br-3 (HER2/neu-positive) cells stained with a SEQ ID NO:3-QD-trastuzumab complex. The SK-Br-3 cells were incubated with isotype control antibody (top left), PE-anti-HER2 (top middle), SEQ ID NO:3-QD only (top right), and SEQ ID NO:3-QD-trastuzumab complex (bottom left). The cells were 84.7% positive for HER2/neu, 15.9% positive with SEQ ID NO:3-QD only and 68.9% positive with SEQ ID NO:3-QD-trastuzumab complex. A histogram representation of the data is included at the bottom right of the figure.
# Additional experiments utilized HER2/neu-positive SK-Br-3 cells stained with polypeptide-QD bound to trastuzumab. The SK-Br-3 cells were incubated with isotype (FIG. 4, top left), PE-anti-HER2 (FIG. 4, top middle), polypeptide-QD only (FIG. 4, top right), and polypeptide-QD-trastuzumab complex (FIG. 4, bottom left). The cells were 84.7% positive for HER2/neu, 15.9% positive with polypeptide-QD only and 68.9% positive with the polypeptide-QD-trastuzumab complex. A histogram representation of the data is shown at the bottom right of […].
Substance,Daudi cells positive by flow cytometry [1] [%],SK-Br-3 cells positive by flow cytometry [2] [%]
FITC-rituximab: FITC-labeled rituximab used as direct CD20 stain of Daudi cells [reference compound],95,
"polypeptide-QD only: SEQ ID NO:3 polypeptide thiol-linked via SMCC crosslinker to PEG-coated Quantum Dots, without antibody (CGSGGGSVVLNQLCVLHEKTPVSDR; not fully specified (residue 1); also: Cys1 thiol linked via SMCC to PEG-coated quantum dot)",11.62,15.9
